Test results as given in patent publication US11787799B2 (priority 2015, dated 2023).

Tests used:
Echovirus 11 = assay: microbe, parasite or virus in culture; type: cell-based; conditions: read-out: EC50 ECHO11
Coxsackievirus B3-H3 = assay: microbe, parasite or virus in culture; type: cell-based; conditions: read-out: EC50 CVB3-H3
Echovirus 30 = assay: microbe, parasite or virus in culture; type: cell-based; conditions: read-out: EC50 ECHO30
Coxsackievirus B4 = assay: microbe, parasite or virus in culture; type: cell-based; conditions: read-out: EC50 CVB4
Coxsackievirus B5 = assay: microbe, parasite or virus in culture; type: cell-based; conditions: read-out: EC50 CVB5
Echovirus 7 = assay: microbe, parasite or virus in culture; type: cell-based; conditions: read-out: EC50 ECHO07
Poliovirus 3 = assay: microbe, parasite or virus in culture; type: cell-based; conditions: read-out: EC50 PV3
Echovirus 25 = assay: microbe, parasite or virus in culture; type: cell-based; conditions: read-out: EC50 ECHO25
Poliovirus 1 = assay: microbe, parasite or virus in culture; type: cell-based; conditions: read-out: EC50 PV1
Enterovirus 71 = assay: microbe, parasite or virus in culture; type: cell-based; conditions: read-out: EC50 EV71
Echovirus 6 = assay: microbe, parasite or virus in culture; type: cell-based; conditions: read-out: EC50 ECHO06
Coxsackievirus A9 = assay: microbe, parasite or virus in culture; type: cell-based; conditions: read-out: EC50 COX A9
Coxsackievirus B2 = assay: microbe, parasite or virus in culture; type: cell-based; conditions: read-out: EC50 CVB2
Coxsackievirus B1 = assay: microbe, parasite or virus in culture; type: cell-based; conditions: read-out: EC50 CVB1
Echovirus 9 = assay: microbe, parasite or virus in culture; type: cell-based; conditions: read-out: EC50 ECHO09
[1] = tested on: Enterovirus D68/US/Mo/14-18949; assay: Antiviral assay, Enterovirus D68 strain US/Mo/14-18949 in RD cells; type: cell-based
[2] = tested on: Enterovirus D68/US/KY/14-18953; assay: Antiviral assay, Enterovirus D68 strain US/KY/14-18953 in RD cells; type: cell-based
Enterovirus D68/Fermon = assay: Antiviral assay, Enterovirus D68 strain Fermon in RD cells; type: cell-based

Row | Structure (SMILES) | EC50 (Echovirus 11) [nM] | EC50 (Coxsackievirus B3-H3) [nM] | EC50 (Echovirus 30) [nM] | EC50 (Coxsackievirus B4) [nM] | CC50 (LLC cells) [nM] | EC50 (Coxsackievirus B5) [nM] | EC50 (Echovirus 7) [nM] | EC50 (Poliovirus 3) [nM] | EC50 (Echovirus 25) [nM] | CC50 (HeLa-RW cells) [nM] | EC50 (Poliovirus 1) [nM] | EC50 (Enterovirus 71) [nM] | EC50 (Echovirus 6) [nM] | EC50 (Coxsackievirus A9) [nM] | EC50 (Coxsackievirus B2) [nM] | EC50 (Coxsackievirus B1) [nM] | EC50 (Echovirus 9) [nM] | EC50 [1] [nM] | EC50 [2] [nM] | CC50 (RD cells) [nM] | further results
1 | CC(C)n1ncc2c(C(=O)Nc3ncccn3)cc(-c3cccs3)nc21 [JX-041] | 600 | 600 | < 400 | 600 | 75000 | 600 | 700 | > 10000 | 600 | 37500 | > 10000 | 500 ± 100 | 400 | 600 | 600 | 600 |  |  |  |  | 
2 | CC(C)n1ncc2c(C(=S)Nc3ccc(F)cc3)cc(-c3cccs3)nc21 [JX-046] | > 10000 |  | 6250 |  | 20000 |  | > 10000 |  | > 10000 |  |  | > 10000 | > 10000 | > 10000 |  |  | > 10000 |  |  |  | 
3 | CC(C)n1ncc2c(C(=O)Nc3cccc(S(=O)(=O)N(C)C)c3)cc(-c3cccs3)nc21 [JX-052] | 600 | 1200 | 400 | 1200 | > 200000 | 1200 | 780 | > 10000 |  | 12000 | > 10000 | 800 ± 100 |  | 800 | 1200 | 1200 | 200 | 310 ± 70 | 530 ± 290 | > 200000 | EC50 (Enterovirus D68/Fermon): 570 ± 250 nM
4 | CC(C)n1ncc2c(C(=O)Nc3cccnc3)cc(-c3cccs3)nc21 [JX-056] | 200 | 600 | 300 | 600 | > 200000 | 600 | 450 | 10000 |  | 25000 | 10000 | 500 ± 100 |  | 600 | 600 | 600 | 200 | < 100 | 120 | 25000 | EC50 (Enterovirus D68/Fermon): < 100 nM
5 | CC(C)n1ncc2c(C(=O)N(C)c3ccccn3)cc(-c3cccs3)nc21 [JX-074] | > 10000 | > 10000 | > 10000 | > 10000 |  | > 10000 | > 10000 | > 10000 | > 10000 |  | > 10000 | > 10000 | > 10000 | > 10000 | > 10000 | > 10000 | > 10000 |  |  |  | 
